Results: publication PMC10175918 (Communications Biology, 2023)
Like-named read-outs stand apart in the source and are kept apart here.

Assays:
Assay in all cases: TGFα-shedding assay-based GPCR screening with chimeric Gα subunit proteins
Format in all cases: cell-based
348 GPCRs [1] = target: 348 GPCRs (Homo sapiens, UniProt P07550); conditions: 10µM, Favipiravir 100μM
348 GPCRs [2] = target: T1, 348 GPCRs (Homo sapiens, UniProt P08588)
T1 construct: expressed in transfected cells; host or cells: HEK293A

348 GPCRs [3] = target: T2, 348 GPCRs (Homo sapiens, UniProt P21917); conditions: 10µM, Favipiravir 100μM
T2 sequence (P21917 1-419): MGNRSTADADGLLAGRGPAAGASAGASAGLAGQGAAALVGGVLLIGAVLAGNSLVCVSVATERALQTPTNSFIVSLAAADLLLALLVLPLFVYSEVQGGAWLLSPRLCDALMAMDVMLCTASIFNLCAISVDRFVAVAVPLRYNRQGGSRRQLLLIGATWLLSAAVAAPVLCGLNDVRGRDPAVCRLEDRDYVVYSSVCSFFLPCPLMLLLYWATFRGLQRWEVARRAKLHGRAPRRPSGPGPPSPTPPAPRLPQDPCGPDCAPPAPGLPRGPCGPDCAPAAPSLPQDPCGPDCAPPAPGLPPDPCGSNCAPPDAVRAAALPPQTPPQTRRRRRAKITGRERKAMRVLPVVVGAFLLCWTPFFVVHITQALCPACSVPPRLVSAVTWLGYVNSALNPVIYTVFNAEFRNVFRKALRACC

348 GPCRs [4] = target: T3, 348 GPCRs (Homo sapiens, UniProt P41231)
T3 construct: expressed in transfected cells; host or cells: HEK293A

348 GPCRs [5] = target: T4, 348 GPCRs (Homo sapiens, UniProt P47898); conditions: 10µM, Favipiravir 100μM
T4 construct: expressed in transfected cells; host or cells: HEK293A

348 GPCRs [6] = target: T5, 348 GPCRs (Homo sapiens, UniProt P47900); conditions: GPCR P2Y1 (purinergic receptor P2Y, G-protein coupled, 1)
T5 construct: expressed in transfected cells; host or cells: HEK293A

348 GPCRs [7] = target: T6, 348 GPCRs (Homo sapiens, UniProt P50052); conditions: 10µM, Favipiravir 100μM
T6 construct: expressed in transfected cells; host or cells: HEK293A
T6 sequence (P50052 1-363): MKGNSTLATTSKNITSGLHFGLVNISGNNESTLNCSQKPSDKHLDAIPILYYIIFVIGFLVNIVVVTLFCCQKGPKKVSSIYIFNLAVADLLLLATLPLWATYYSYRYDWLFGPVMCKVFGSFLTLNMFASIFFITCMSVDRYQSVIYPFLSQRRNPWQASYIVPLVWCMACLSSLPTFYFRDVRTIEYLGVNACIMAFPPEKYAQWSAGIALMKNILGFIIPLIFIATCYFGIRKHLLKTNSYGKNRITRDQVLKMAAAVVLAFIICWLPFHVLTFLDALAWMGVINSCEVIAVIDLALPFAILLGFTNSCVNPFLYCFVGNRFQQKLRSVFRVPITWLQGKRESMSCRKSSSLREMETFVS

348 GPCRs [8] = target: T7, 348 GPCRs (Homo sapiens, UniProt Q02643); conditions: 10µM, Favipiravir 100μM
T7 construct: expressed in transfected cells; host or cells: HEK293A
T7 sequence (Q02643 23-423): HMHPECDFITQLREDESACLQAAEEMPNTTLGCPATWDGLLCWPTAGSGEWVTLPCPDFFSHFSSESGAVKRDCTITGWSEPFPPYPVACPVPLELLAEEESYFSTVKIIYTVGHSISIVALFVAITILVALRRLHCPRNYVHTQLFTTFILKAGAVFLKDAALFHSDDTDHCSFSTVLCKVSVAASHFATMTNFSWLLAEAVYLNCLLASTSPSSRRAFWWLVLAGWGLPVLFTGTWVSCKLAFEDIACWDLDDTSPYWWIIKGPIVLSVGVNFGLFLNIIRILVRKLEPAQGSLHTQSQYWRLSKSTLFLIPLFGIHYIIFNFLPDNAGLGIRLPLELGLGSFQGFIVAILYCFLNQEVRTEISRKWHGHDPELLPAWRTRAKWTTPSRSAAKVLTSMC

348 GPCRs [9] = target: T8, 348 GPCRs (Homo sapiens, UniProt Q13255); conditions: 10µM, Favipiravir 100μM
T8 construct: expressed in transfected cells; host or cells: HEK293A

348 GPCRs [10] = target: T9, 348 GPCRs (Homo sapiens, UniProt Q8IZ08); conditions: 10µM, Favipiravir 100μM
T9 construct: expressed in transfected cells; host or cells: HEK293A

[11] = read-out: % GPCR activation compared to TPA, ADRB2 (adrenoceptor beta 2, surface)
[12] = read-out: % GPCR activation compared to TPA, GPCR β1 (adrenoceptor beta 1)
[13] = read-out: % GPCR activation compared to TPA, D4 (dopamine receptor D4)
[14] = read-out: % GPCR activation compared to TPA, GPCR P2Y2 (purinergic receptor P2Y, G-protein coupled, 2)
[15] = read-out: % GPCR activation compared to TPA, 5-HT5A (5-hydroxytryptamine receptor 5A)
[16] = read-out: % GPCR activation compared to TPA, AGTR2 (angiotensin II receptor, type 2)
[17] = read-out: % GPCR activation compared to TPA, GHRHR (growth hormone releasing hormone receptor)
[18] = read-out: % GPCR activation compared to TPA, GRM1 (glutamate receptor, metabotropic 1)
[19] = read-out: % GPCR activation compared to TPA, GPR135 (G Protein-Coupled Receptor 135)
[20] = ADRB2 (adrenoceptor beta 2, surface), read-out: % GPCR activation compared to TPA
[21] = GPCR β1 (adrenoceptor beta 1), read-out: % GPCR activation compared to TPA
[22] = D4 (dopamine receptor D4), read-out: % GPCR activation compared to TPA
[23] = GPCR P2Y2 (purinergic receptor P2Y, G-protein coupled, 2), read-out: % GPCR activation compared to TPA
[24] = 5-HT5A (5-hydroxytryptamine receptor 5A), read-out: % GPCR activation compared to TPA
[25] = AGTR2 (angiotensin II receptor, type 2), read-out: % GPCR activation compared to TPA
[26] = GHRHR (growth hormone releasing hormone receptor), read-out: % GPCR activation compared to TPA
[27] = GRM1 (glutamate receptor, metabotropic 1), read-out: % GPCR activation compared to TPA
[28] = GPR135 (G Protein-Coupled Receptor 135), read-out: % GPCR activation compared to TPA

T8 sequence (Q13255 19-1194): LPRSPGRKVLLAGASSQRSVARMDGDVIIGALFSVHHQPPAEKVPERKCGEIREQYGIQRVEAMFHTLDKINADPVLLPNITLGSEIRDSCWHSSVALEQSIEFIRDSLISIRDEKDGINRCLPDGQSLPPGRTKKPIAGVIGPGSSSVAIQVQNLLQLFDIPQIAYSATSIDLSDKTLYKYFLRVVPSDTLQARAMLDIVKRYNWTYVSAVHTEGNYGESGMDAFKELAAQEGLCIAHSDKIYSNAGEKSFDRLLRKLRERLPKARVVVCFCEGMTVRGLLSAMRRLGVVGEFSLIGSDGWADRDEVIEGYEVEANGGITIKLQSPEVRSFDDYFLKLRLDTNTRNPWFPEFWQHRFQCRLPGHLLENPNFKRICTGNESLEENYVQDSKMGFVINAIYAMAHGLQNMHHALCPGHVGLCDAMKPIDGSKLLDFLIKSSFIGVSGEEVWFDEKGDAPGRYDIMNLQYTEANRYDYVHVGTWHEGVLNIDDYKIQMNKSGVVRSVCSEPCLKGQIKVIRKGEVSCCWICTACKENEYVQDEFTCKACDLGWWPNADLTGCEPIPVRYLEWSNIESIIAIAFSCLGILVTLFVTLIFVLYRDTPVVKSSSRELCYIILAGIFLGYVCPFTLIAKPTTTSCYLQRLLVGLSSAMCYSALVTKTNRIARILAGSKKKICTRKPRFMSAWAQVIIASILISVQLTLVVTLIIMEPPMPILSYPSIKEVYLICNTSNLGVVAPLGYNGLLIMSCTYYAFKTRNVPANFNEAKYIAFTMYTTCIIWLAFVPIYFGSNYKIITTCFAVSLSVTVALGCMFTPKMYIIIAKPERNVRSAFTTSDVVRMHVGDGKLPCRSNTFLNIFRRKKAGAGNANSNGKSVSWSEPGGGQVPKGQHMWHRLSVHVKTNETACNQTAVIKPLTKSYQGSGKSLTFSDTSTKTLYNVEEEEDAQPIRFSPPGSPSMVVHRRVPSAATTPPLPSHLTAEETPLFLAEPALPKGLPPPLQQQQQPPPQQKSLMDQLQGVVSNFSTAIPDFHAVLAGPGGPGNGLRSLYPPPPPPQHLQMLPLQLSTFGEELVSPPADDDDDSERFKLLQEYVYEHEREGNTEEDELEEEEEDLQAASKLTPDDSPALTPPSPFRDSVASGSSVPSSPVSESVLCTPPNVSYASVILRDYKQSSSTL
T9 sequence (Q8IZ08 whole entry): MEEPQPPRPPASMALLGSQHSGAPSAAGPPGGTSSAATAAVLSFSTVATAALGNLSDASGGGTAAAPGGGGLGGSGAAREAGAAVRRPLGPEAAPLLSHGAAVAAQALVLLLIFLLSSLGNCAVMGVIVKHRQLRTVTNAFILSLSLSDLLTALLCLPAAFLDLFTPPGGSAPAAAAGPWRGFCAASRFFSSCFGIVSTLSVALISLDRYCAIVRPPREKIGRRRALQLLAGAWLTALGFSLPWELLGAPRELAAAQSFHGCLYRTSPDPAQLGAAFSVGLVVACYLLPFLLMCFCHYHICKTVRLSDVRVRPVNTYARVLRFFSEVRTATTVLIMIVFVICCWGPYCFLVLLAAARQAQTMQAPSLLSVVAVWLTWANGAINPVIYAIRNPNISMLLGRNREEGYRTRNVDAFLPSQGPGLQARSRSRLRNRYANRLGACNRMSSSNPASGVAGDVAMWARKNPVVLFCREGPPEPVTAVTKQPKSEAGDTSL
T3 sequence (P41231 whole entry): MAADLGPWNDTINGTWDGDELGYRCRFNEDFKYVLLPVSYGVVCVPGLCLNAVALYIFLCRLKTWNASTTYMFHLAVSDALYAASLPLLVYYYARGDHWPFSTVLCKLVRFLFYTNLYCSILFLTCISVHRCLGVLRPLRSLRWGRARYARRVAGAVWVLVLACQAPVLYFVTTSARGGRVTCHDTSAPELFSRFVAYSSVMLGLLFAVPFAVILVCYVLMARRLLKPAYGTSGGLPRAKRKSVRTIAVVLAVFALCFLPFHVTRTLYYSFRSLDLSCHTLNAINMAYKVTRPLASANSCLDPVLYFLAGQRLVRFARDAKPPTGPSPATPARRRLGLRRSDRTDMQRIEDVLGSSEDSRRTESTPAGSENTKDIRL
T1 sequence (P08588 whole entry): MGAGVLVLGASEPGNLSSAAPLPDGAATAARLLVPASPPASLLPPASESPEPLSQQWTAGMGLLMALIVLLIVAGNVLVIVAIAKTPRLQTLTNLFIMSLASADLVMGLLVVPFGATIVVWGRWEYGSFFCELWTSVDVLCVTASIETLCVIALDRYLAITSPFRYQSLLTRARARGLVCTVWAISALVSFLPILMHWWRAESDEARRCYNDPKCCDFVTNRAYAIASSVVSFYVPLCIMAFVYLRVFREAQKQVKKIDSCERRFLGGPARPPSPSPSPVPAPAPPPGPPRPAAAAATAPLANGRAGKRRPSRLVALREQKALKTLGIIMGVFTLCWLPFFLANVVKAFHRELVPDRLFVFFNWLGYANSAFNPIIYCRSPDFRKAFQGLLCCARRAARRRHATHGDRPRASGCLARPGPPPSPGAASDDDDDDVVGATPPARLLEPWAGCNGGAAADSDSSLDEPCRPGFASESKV
T5 sequence (P47900 whole entry): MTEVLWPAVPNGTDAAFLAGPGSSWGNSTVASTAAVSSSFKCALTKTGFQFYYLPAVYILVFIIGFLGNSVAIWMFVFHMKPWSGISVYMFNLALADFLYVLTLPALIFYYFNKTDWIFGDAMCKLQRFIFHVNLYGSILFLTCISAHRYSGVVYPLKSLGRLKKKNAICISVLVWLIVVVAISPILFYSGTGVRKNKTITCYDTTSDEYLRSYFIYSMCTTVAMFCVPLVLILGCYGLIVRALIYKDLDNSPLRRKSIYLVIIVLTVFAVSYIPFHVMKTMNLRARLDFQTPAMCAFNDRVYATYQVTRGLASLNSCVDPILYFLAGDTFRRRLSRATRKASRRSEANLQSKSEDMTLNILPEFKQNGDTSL
T4 sequence (P47898 whole entry): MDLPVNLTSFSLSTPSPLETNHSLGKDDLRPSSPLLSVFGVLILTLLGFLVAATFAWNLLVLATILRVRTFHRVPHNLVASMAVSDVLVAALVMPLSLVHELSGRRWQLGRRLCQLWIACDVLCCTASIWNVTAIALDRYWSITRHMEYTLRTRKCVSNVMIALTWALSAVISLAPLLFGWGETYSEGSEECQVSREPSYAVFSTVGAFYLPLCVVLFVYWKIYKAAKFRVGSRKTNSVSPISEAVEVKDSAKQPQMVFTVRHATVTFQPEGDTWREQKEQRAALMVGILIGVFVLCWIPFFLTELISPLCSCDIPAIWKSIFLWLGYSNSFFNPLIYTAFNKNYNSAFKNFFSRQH
Chain of 348 GPCRs (Homo sapiens, UniProt P07550) (P07550 whole entry): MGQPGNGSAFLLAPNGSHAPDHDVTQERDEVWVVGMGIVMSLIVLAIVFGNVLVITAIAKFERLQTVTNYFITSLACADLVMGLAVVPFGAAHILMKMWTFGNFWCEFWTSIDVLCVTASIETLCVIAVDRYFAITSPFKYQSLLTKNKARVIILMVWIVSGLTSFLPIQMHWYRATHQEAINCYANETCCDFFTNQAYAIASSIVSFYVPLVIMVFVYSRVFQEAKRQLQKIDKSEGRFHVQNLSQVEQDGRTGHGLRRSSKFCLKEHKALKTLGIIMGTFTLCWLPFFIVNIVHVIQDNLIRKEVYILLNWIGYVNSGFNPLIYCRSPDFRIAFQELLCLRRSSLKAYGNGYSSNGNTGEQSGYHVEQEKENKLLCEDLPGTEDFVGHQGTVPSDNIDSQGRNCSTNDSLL

CC(C)OC(=O)[C@H](C)N[P@](=O)(OC[C@H]1O[C@@H](n2ccc(=O)[nH]c2=O)[C@](C)(F)[C@@H]1O)Oc1ccccc1 [sofosbuvir]
activation at 10 µM (348 GPCRs [1]; [11]): 1.76% | activation at 10 µM (348 GPCRs [2]; [12]): 1.27% | activation at 100 µM (348 GPCRs [3]; [13]): -2.21% | activation at 10 µM (348 GPCRs [4]; [14]): -41.7% | activation at 100 µM (348 GPCRs [5]; [15]): -0.524% | % GPCR activation compared to TPA (348 GPCRs [6]; 10µM): -4.632% | activation at 10 µM (348 GPCRs [7]; [16]): 1.67% | activation at 100 µM (348 GPCRs [8]; [17]): -2.19% | activation at 10 µM (348 GPCRs [9]; [18]): 0.735% | activation at 100 µM (348 GPCRs [10]; [19]): -2.6%

CC(C)C(=O)OC[C@H]1O[C@@H](n2ccc(NO)nc2=O)[C@H](O)[C@@H]1O [molnupiravir]
activation at 10 µM (348 GPCRs [1]; [20]): 0.263% | activation at 10 µM (348 GPCRs [2]; [21]): 0.738% | activation at 100 µM (348 GPCRs [3]; [22]): -1.43% | activation at 10 µM (348 GPCRs [4]; [23]): -58.1% | activation at 100 µM (348 GPCRs [5]; [24]): -1.01% | % GPCR activation compared to TPA (348 GPCRs [6]; 10µM): -11.8258% | activation at 10 µM (348 GPCRs [7]; [25]): 0.537% | activation at 100 µM (348 GPCRs [8]; [26]): -0.966% | activation at 10 µM (348 GPCRs [9]; [27]): -0.761% | activation at 100 µM (348 GPCRs [10]; [28]): -1.53%

NC(=O)c1nc(F)cnc1O [favipiravir, 6-fluoro-3-hydroxy-2-pyrazinecarboxamide]
activation at 10 µM (348 GPCRs [1]; [20]): -1% | activation at 100 µM (348 GPCRs [2]; GPCR β1 (adrenoceptor beta 1), 100μM, read-out: % GPCR activation compared to TPA): -1.4% | activation at 100 µM (348 GPCRs [3]; [22]): 2.6% | activation at 100 µM (348 GPCRs [4]; GPCR P2Y2 (purinergic receptor P2Y, G-protein coupled, 2), 100μM, read-out: % GPCR activation compared to TPA): -23% | activation at 100 µM (348 GPCRs [5]; [24]): -2.45% | % GPCR activation compared to TPA (348 GPCRs [6]; 100μM): 0.4296% | activation at 10 µM (348 GPCRs [7]; [25]): 0.741% | activation at 100 µM (348 GPCRs [8]; [26]): 6.96% | activation at 10 µM (348 GPCRs [9]; [27]): -0.946% | activation at 100 µM (348 GPCRs [10]; [28]): -0.994%

N#C[C@@]1(c2ccc3c(N)ncnn23)O[C@H](CO)[C@@H](O)[C@H]1O [GS441524]
activation at 10 µM (348 GPCRs [1]; [20]): -0.409% | activation at 10 µM (348 GPCRs [2]; [21]): -0.381% | activation at 100 µM (348 GPCRs [3]; [22]): 3.32% | activation at 10 µM (348 GPCRs [4]; [23]): -17.2% | activation at 100 µM (348 GPCRs [5]; [24]): -3.98% | % GPCR activation compared to TPA (348 GPCRs [6]; 10µM): -0.4592% | activation at 10 µM (348 GPCRs [7]; [25]): 0.337% | activation at 100 µM (348 GPCRs [8]; [26]): 1.38% | activation at 10 µM (348 GPCRs [9]; [27]): -0.549% | activation at 100 µM (348 GPCRs [10]; [28]): -1.68%

CCC(CC)COC(=O)[C@H](C)N[P@](=O)(OC[C@H]1O[C@@](C#N)(c2ccc3c(N)ncnn23)[C@H](O)[C@@H]1O)Oc1ccccc1 [remdesivir]
activation at 10 µM (348 GPCRs [1]; [11]): 1.06% | activation at 10 µM (348 GPCRs [2]; [12]): 1.07% | activation at 100 µM (348 GPCRs [3]; [13]): 4.84% | activation at 10 µM (348 GPCRs [4]; [14]): -6.22% | activation at 100 µM (348 GPCRs [5]; [15]): -0.876% | % GPCR activation compared to TPA (348 GPCRs [6]; 10µM): 11.0377% | activation at 10 µM (348 GPCRs [7]; [16]): 0.676% | activation at 100 µM (348 GPCRs [8]; [17]): 5.92% | activation at 10 µM (348 GPCRs [9]; [18]): -0.568% | activation at 100 µM (348 GPCRs [10]; [19]): -2.35%
